This is an account of results in the supplement of paper PMC10307832.

Test in all cases: relative viability (nuclei count vs DMSO), 5 days (fraction); higher = more cells survive
Compound in assay [1]: C1CC(C1)(C(=O)O)C(=O)O.[NH2-].[NH2-].[Pt+2] [Carboplatin] + CC(=O)c1c(C)c2cnc(Nc3ccc(N4CCNCC4)cn3)nc2n(C2CCCC2)c1=O [Palbociclib] (partner 0.5 µM)
In outline:
(§1)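 Relative viability was taken as the ratio of nuclei in treated wells to nuclei in vehicle wells. Lung cancer cell lines in 1536-well plates received compounds by pin tool one day after seeding, either one drug alone or a fixed anchor-drug dose plus five library-drug doses (not always all listed) in √10 steps. Nuclei were counted on 4× images after 5 days of treatment, and values are medians of duplicate plates.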

Compound in the assay “Carboplatin + Dasatinib”: C1CC(C1)(C(=O)O)C(=O)O.[NH2-].[NH2-].[Pt+2] [Carboplatin] + Cc1nc(Nc2ncc(C(=O)Nc3c(C)cccc3Cl)s2)cc(N2CCN(CCO)CC2)n1 [Dasatinib] (partner 0.075 µM)
A digest of the protocol: as §1

Compound in the assay “GSK126 + OSI-027”: CC[C@H](C)N1C=C(C2=C(C=C(C=C21)C3=CN=C(C=C3)N4CCNCC4)C(=O)NCC5=C(C=C(NC5=O)C)C)C [GSK126] + COc1cccc2cc(-c3nc([C@H]4CC[C@H](C(=O)O)CC4)n4ncnc(N)c34)[nH]c12 [OSI-027] (partner 0.5 µM)
A digest of the protocol:
as §1

Compound in the assay “GSK126 + AZD7762”: CC[C@H](C)N1C=C(C2=C(C=C(C=C21)C3=CN=C(C=C3)N4CCNCC4)C(=O)NCC5=C(C=C(NC5=O)C)C)C [GSK126] + NC(=O)Nc1cc(-c2cccc(F)c2)sc1C(=O)N[C@H]1CCCNC1 [AZD7762] (partner 0.2 µM)
In outline: as §1

On to NCI-H2405, for which the relative viability is 0.552 in assay [1] (first compound 0.08 µM); 0.542 in assay [1] (first compound 0.253 µM); 0.542 in assay [1] (first compound 0.8 µM); 0.543 in assay [1] (first compound 2.53 µM); 0.449 in assay [1] (first compound 8 µM); 0.234 with Carboplatin + Dasatinib (first compound 0.08 µM). In addition, the relative viability with Carboplatin + Dasatinib (first compound 0.253 µM) was found to be 0.206; in the assay with Carboplatin + Dasatinib (first compound 0.8 µM), 0.214; with Carboplatin + Dasatinib (first compound 2.53 µM), 0.191; in the assay with Carboplatin + Dasatinib (first compound 8 µM), 0.215; with GSK126 + OSI-027 (first compound 0.08 µM), 0.602; with GSK126 + OSI-027 (first compound 0.253 µM), 0.633. The relative viability was 0.611 in the assay with GSK126 + OSI-027 (first compound 0.8 µM); 0.622 in the assay with GSK126 + OSI-027 (first compound 2.53 µM); 0.662 in the assay with GSK126 + OSI-027 (first compound 8 µM); 0.794 with GSK126 + AZD7762 (first compound 0.08 µM); 0.603 with GSK126 + AZD7762 (first compound 0.253 µM); 0.695 in the assay with GSK126 + AZD7762 (first compound 0.8 µM). Also, the relative viability with GSK126 + AZD7762 (first compound 2.53 µM) was 0.715; with GSK126 + AZD7762 (first compound 8 µM) it was 0.611.

Regarding NCI-H3122, the relative viability was 0.17 in assay [1] (first compound 0.08 µM); 0.211 in assay [1] (first compound 0.253 µM); 0.17 in assay [1] (first compound 0.8 µM); 0.183 in assay [1] (first compound 2.53 µM); 0.189 in assay [1] (first compound 8 µM); 0.759 with Carboplatin + Dasatinib (first compound 0.08 µM). The relative viability with Carboplatin + Dasatinib (first compound 0.253 µM) came to 0.996; with Carboplatin + Dasatinib (first compound 0.8 µM) it was 0.87; with Carboplatin + Dasatinib (first compound 2.53 µM), 0.961; in the assay with Carboplatin + Dasatinib (first compound 8 µM) it was 0.816; with GSK126 + OSI-027 (first compound 0.08 µM), 1.23; with GSK126 + OSI-027 (first compound 0.253 µM), 0.953. The relative viability with GSK126 + OSI-027 (first compound 0.8 µM) came to 0.963; with GSK126 + OSI-027 (first compound 2.53 µM) it was 1.01; in the assay with GSK126 + OSI-027 (first compound 8 µM), 0.896; in the assay with GSK126 + AZD7762 (first compound 0.08 µM), 0.968; with GSK126 + AZD7762 (first compound 0.253 µM) it was 1.01; in the assay with GSK126 + AZD7762 (first compound 0.8 µM) it was 0.956. For the same cell line, the relative viability with GSK126 + AZD7762 (first compound 2.53 µM) was 1.03; with GSK126 + AZD7762 (first compound 8 µM), 1.01.

For the cell line PC-3 [JPC-3], the relative viability worked out at 0.537 in assay [1] (first compound 0.08 µM); 0.577 in assay [1] (first compound 0.253 µM); 0.511 in assay [1] (first compound 0.8 µM); 0.526 in assay [1] (first compound 2.53 µM); 0.512 in assay [1] (first compound 8 µM); 1 with Carboplatin + Dasatinib (first compound 0.08 µM). For the same cell line, the relative viability with Carboplatin + Dasatinib (first compound 0.253 µM) was 1.09; with Carboplatin + Dasatinib (first compound 0.8 µM), 0.985; in the assay with Carboplatin + Dasatinib (first compound 2.53 µM) it was 0.95; with Carboplatin + Dasatinib (first compound 8 µM) it was 0.864; with GSK126 + OSI-027 (first compound 0.08 µM), 0.839; with GSK126 + OSI-027 (first compound 0.253 µM), 0.847. Further, the relative viability in the assay with GSK126 + OSI-027 (first compound 0.8 µM) amounted to 0.76; in the assay with GSK126 + OSI-027 (first compound 2.53 µM), 0.822; with GSK126 + OSI-027 (first compound 8 µM), 0.855; with GSK126 + AZD7762 (first compound 0.08 µM) it was 0.855; with GSK126 + AZD7762 (first compound 0.253 µM), 0.855; with GSK126 + AZD7762 (first compound 0.8 µM), 0.957. The relative viability in the assay with GSK126 + AZD7762 (first compound 2.53 µM) amounted to 0.871; with GSK126 + AZD7762 (first compound 8 µM) it was 0.766.

Regarding PC-14, the relative viability in assay [1] (first compound 0.08 µM) was found to be 0.552; in assay [1] (first compound 0.253 µM), 0.509; in assay [1] (first compound 0.8 µM) it was 0.411; in assay [1] (first compound 2.53 µM), 0.239; in assay [1] (first compound 8 µM), 0.117; with Carboplatin + Dasatinib (first compound 0.08 µM), 0.288. The relative viability with Carboplatin + Dasatinib (first compound 0.253 µM) was determined as 0.292; with Carboplatin + Dasatinib (first compound 0.8 µM) it was 0.261; in the assay with Carboplatin + Dasatinib (first compound 2.53 µM), 0.131; with Carboplatin + Dasatinib (first compound 8 µM) it was 0.068; in the assay with GSK126 + OSI-027 (first compound 0.08 µM) it was 1.06; with GSK126 + OSI-027 (first compound 0.253 µM) it was 0.854. Moreover, the relative viability with GSK126 + OSI-027 (first compound 0.8 µM) is 0.757; in the assay with GSK126 + OSI-027 (first compound 2.53 µM), 0.939; in the assay with GSK126 + OSI-027 (first compound 8 µM) it was 0.83; with GSK126 + AZD7762 (first compound 0.08 µM), 0.335; with GSK126 + AZD7762 (first compound 0.253 µM) it was 0.314; with GSK126 + AZD7762 (first compound 0.8 µM), 0.35. Also, the results for the relative viability in the assay with GSK126 + AZD7762 (first compound 2.53 µM) and with GSK126 + AZD7762 (first compound 8 µM) were 0.417 and 0.312, respectively.

On to RERF-LC-KJ, for which the relative viability in assay [1] (first compound 0.08 µM) was 1.22; in assay [1] (first compound 0.253 µM) it was 1.09; in assay [1] (first compound 0.8 µM), 0.894; in assay [1] (first compound 2.53 µM) it was 0.815; in assay [1] (first compound 8 µM), 0.651; with Carboplatin + Dasatinib (first compound 0.08 µM) it was 0.892. Further, the relative viability in the assay with Carboplatin + Dasatinib (first compound 0.253 µM) was 0.767; in the assay with Carboplatin + Dasatinib (first compound 0.8 µM), 0.747; in the assay with Carboplatin + Dasatinib (first compound 2.53 µM), 0.706; with Carboplatin + Dasatinib (first compound 8 µM), 0.517; with GSK126 + OSI-027 (first compound 0.08 µM), 0.648; with GSK126 + OSI-027 (first compound 0.253 µM), 0.66. The relative viability with GSK126 + OSI-027 (first compound 0.8 µM) came to 0.597; with GSK126 + OSI-027 (first compound 2.53 µM), 0.652; in the assay with GSK126 + OSI-027 (first compound 8 µM) it was 0.575; with GSK126 + AZD7762 (first compound 0.253 µM), 1.09; with GSK126 + AZD7762 (first compound 0.8 µM) it was 0.959; in the assay with GSK126 + AZD7762 (first compound 2.53 µM), 1.1. Further, the relative viability in the assay with GSK126 + AZD7762 (first compound 8 µM) worked out at 1.03.

SW 900: the relative viability in assay [1] (first compound 0.08 µM) is 0.548; in assay [1] (first compound 0.253 µM) it was 0.622; in assay [1] (first compound 0.8 µM) it was 0.572; in assay [1] (first compound 2.53 µM), 0.393; in assay [1] (first compound 8 µM), 0.505; with Carboplatin + Dasatinib (first compound 0.08 µM), 0.837. The relative viability with Carboplatin + Dasatinib (first compound 0.253 µM) came to 0.616; with Carboplatin + Dasatinib (first compound 0.8 µM), 0.442; in the assay with Carboplatin + Dasatinib (first compound 2.53 µM), 0.409; in the assay with Carboplatin + Dasatinib (first compound 8 µM) it was 0.467; with GSK126 + OSI-027 (first compound 0.08 µM), 0.605; in the assay with GSK126 + OSI-027 (first compound 0.253 µM) it was 0.505. In addition, the relative viability with GSK126 + OSI-027 (first compound 0.8 µM) stood at 0.502; in the assay with GSK126 + OSI-027 (first compound 2.53 µM) it was 0.473; with GSK126 + OSI-027 (first compound 8 µM), 0.466; in the assay with GSK126 + AZD7762 (first compound 0.08 µM), 0.765; with GSK126 + AZD7762 (first compound 0.253 µM), 0.559; in the assay with GSK126 + AZD7762 (first compound 0.8 µM) it was 0.582. Further, the relative viability turned out to be 0.585 in the assay with GSK126 + AZD7762 (first compound 2.53 µM) and 0.58 in the assay with GSK126 + AZD7762 (first compound 8 µM).
